Like-named read-outs stand apart in the source and are kept apart here.
Columns and labels:
Experiment in all cases: Ras GTP binding domain inhibition assay (Cy3-GTP/Cy5-GTP competition)
KRas Q61H mutant = system: KRas Q61H mutant; parameters: species or system human; details: 20 μM
Method: (§1) The following method was developed as specific assay for the following proteins: KRas wild type, KRas Q61H mutant, KRas G12C mutant, KRas G12D mutant, HRas wild type, Rac-1, and Rho-A.
(§2) • 25 mM Tris-HCl, pH 7.4 • 27 mM KCl • 137 mM NaCl • 1 mM MgCl2 • 1 mM DTT
(§3) • 50 mM Tris-HCl, pH 7.0 • 1 mM MgCl2 • 1 mM DTT
(§4) The small GTPases proteins: KRas wild type. KRas Q61H mutant, KRas G12C mutant, KRas G12D mutants, HRas wild type, Rac-1, and Rho-A were expressed as His-tagged proteins. In addition, the Guanosine nucleotide Exchange Factor (GEF) Sos protein (residues 556-1049) was expressed as a His-tagged protein. In cells, the guanine nucleotide exchange factor Sos protein promotes activation of Ras proteins by stimulating an exchange of GDP for GTP. The inclusion of Sos to the Ras GTP binding domain inhibition assay may be considered as an alternative representation of physiological cellular conditions for evaluating the inhibitory activity of some of the tested small molecules.
(§5) For the assay, all purified small GTPases proteins were diluted in Buffer-I or Buffer-II to a final concentration of 10-30 μg/mL. 200 μL of each diluted protein was added to a nickel-coated 96-well plate and incubated overnight at 4° C. Then the protein solution was discarded and 200 μL of Buffer-I or Buffer-II was added to each well in the presence of 1% DMSO. Compounds to be tested were added to the protein-coated wells at final concentration of 20 μM, and incubated for 3 hours at room temperature with and without […] of Sos added to the final hour of the incubation. When performing IC50 measurements a serial dilution of all tested concentrations was added. Then Cy3-GTP or Cy5-GTP was added to each well to a final concentration of 100 nM. The labeled GTP was incubated for 45 minutes at room temperature. Following GTP incubation, wells were washed 3× in Buffer-I or Buffer-II and 200 μL of Buffer-I or Buffer-II was added to each well. Following washes, the amount of bound labeled-GTP was measured using a SpectraMax M3 (Molecular Devices).

KRas wild type = system: KRas wild type; parameters: species or system human; details: 20 μM; for KRas wild type: % inh.: without SOS; for KRas wild type % inh.: without SOS (Table 7A)
Method: as §1, §2, §3, §4, §5

KRas G12C mutant = system: KRas G12C mutant; parameters: species or system human; details: 20 μM; for KRas G12C mutant + SOS: % inh.: with SOS; for KRas G12C mutant: % inh.: without SOS
Method: as §1, §2, §3, §4, §5

KRas G12D mutant = target: T1, KRas G12D mutant (Homo sapiens, UniProt P01116, G12D)
T1 construct: fused on or other part: His tag, used for capture on nickel-coated plates
Method: as §1, §2, §3, §4, §5

[1] = 20 μM, with SOS, read-out: KRas G-12D mutant + SOS: % inh.
[2] = 20 μM, without SOS, read-out: KRas G12D mutant: % inh.
[3] = at 20 μM, with SOS, read-out: KRas G12D mutant + SOS: % inh.
[4] = at 20 μM, without SOS, read-out: KRas G12D mutant: % inh.
[5] = 20 μM, with SOS (Table 7A), read-out: KRas G12D mutant + SOS: % inh.
[6] = 20 μM, without SOS (Table 7A), read-out: KRas G12D mutant: % inh.

| Compound | KRas Q61H mutant + SOS: % inh. (KRas Q61H mutant; with SOS) | KRas Q61H mutant: % inh. (KRas Q61H mutant; without SOS) | KRas wild type + SOS: % inh. (KRas wild type; with SOS) | KRas wild type: % inh. (KRas wild type) | KRas G12C mutant + SOS: % inh. (KRas G12C mutant) | KRas G12C mutant: % inh. (KRas G12C mutant) | inhibition at 20 µM (KRas G12D mutant; [1]) [%] | inhibition at 20 µM (KRas G12D mutant; [2]) [%] | KRas Q61H mutant + SOS: % inh. (KRas Q61H mutant; with SOS (Table 7A)) | KRas Q61H mutant: % inh. (KRas Q61H mutant; without SOS (Table 7A)) | KRas wild type + SOS: % inh. (KRas wild type; with SOS (Table 7A)) | KRas wild type % inh. (KRas wild type) | inhibition at 20 µM (KRas G12D mutant; [5]) [%] | inhibition at 20 µM (KRas G12D mutant; [6]) [%] | further results |
| --- | --- | --- | --- | --- | --- | --- | --- | --- | --- | --- | --- | --- | --- | --- | --- |
| COc1nscc1-c1sc2nc(-c3nccn3C)nc(N3CCC(OC)C3)c2c1-c1ccccc1.Cl (centres unmarked) | D (76-100% inhibition) | C (51-75% inhibition) | D (76-100% inhibition) | B (26-50% inhibition) | D (76-100% inhibition) | B (26-50% inhibition) | 51 to 75 | 26 to 50 |  |  |  |  |  |  |  |
| COCCn1cc(-c2sc3nc(-c4nccn4C)nc(N4CCC(OC)C4)c3c2-c2ccccc2)cn1.Cl (centres unmarked) | C (51-75% inhibition) | B (26-50% inhibition) | C (51-75% inhibition) | D (76-100% inhibition) | D (76-100% inhibition) | D (76-100% inhibition) | 51 to 75 | 51 to 75 |  |  |  |  |  |  |  |
| COC1CCN(c2nc(-c3nccn3C)nc3sc(-c4cnc(C5CC5)o4)c(-c4ccccc4)c23)C1.Cl (centres unmarked) | C (51-75% inhibition) | B (26-50% inhibition) | C (51-75% inhibition) | C (51-75% inhibition) | C (51-75% inhibition) | C (51-75% inhibition) | 51 to 75 | 51 to 75 |  |  |  |  |  |  |  |
| COc1ncccc1-c1sc2nc(-c3nccn3C)nc(N3CCC(OC)C3)c2c1-c1ccccc1.Cl (centres unmarked) | C (51-75% inhibition) | C (51-75% inhibition) | C (51-75% inhibition) | C (51-75% inhibition) | C (51-75% inhibition) | C (51-75% inhibition) | 51 to 75 | 51 to 75 |  |  |  |  |  |  |  |
| COC1CCN(c2nc(-c3nccn3C)nc3sc(-c4cccnc4)c(-c4ccccc4)c23)C1.Cl (centres unmarked) | C (51-75% inhibition) | B (26-50% inhibition) | C (51-75% inhibition) | C (51-75% inhibition) | D (76-100% inhibition) | D (76-100% inhibition) | 51 to 75 | 51 to 75 |  |  |  |  |  |  |  |
| COC1CCN(C(=O)c2sc3nc(-c4nccn4C)nc(N[C@H]4C[C@@H](OC)C4)c3c2C2=CC=CCC=C2)C1 (some centres unmarked) |  |  |  |  |  |  |  |  |  |  |  |  |  |  | IC50 (KRas G12D mutant; cell-free, 100 nM Cy3-GTP or Cy5-GTP): 5 to 10 µM |
| COc1cccc(-c2sc3nc(-c4nccn4C)nc(N[C@@H]4CC[C@H](C=O)C4)c3c2-c2ccccc2)c1F (racemic) |  |  |  |  |  |  |  |  |  |  |  |  |  |  | inhibition at 20 µM (KRas G12D mutant; [3]): 51 to 75%; inhibition at 20 µM (KRas G12D mutant; [4]): 51 to 75% |
| COc1cccc(-c2sc3nc(-c4nccn4C)nc(N[C@@H]4CC[C@H](OC)C4)c3c2-c2ccccc2)c1F [drawing 884] |  |  |  |  |  |  |  |  | D (76-100% inhibition) | C (51-75% inhibition) | D (76-100% inhibition) | C (51-75% inhibition) | 51 to 75 | 51 to 75 |  |
| COc1c(F)cccc1-c1sc2nc(-c3nccn3C)nc(N[C@@H]3CC[C@H](OC)C3)c2c1-c1ccccc1 [drawing 887] |  |  |  |  |  |  |  |  | D (76-100% inhibition) | D (76-100% inhibition) | D (76-100% inhibition) | D (76-100% inhibition) | 76 to 100 | 76 to 100 |  |
| CO[C@H]1CC[C@@H](Nc2nc(-c3nccn3C)nc3sc(-c4cccc5[nH]ncc45)c(-c4ccccc4)c23)C1 [drawing 889] |  |  |  |  |  |  |  |  | D (76-100% inhibition) | C (51-75% inhibition) | D (76-100% inhibition) | C (51-75% inhibition) | 51 to 75 | 51 to 75 |  |
| COc1cccc(-c2sc3nc(-c4nccn4C)nc(N[C@@H]4CC[C@H](OC)C4)c3c2C)c1F [drawing 894] |  |  |  |  |  |  |  |  | D (76-100% inhibition) | C (51-75% inhibition) | D (76-100% inhibition) | C (51-75% inhibition) | 51 to 75 | 51 to 75 |  |
| COc1cccc(-c2sc3nc(-c4nc(C)cn4C)nc(N[C@@H]4CC[C@H](OC)C4)c3c2C)c1F [drawing 896] |  |  |  |  |  |  |  |  | B (26-50% inhibition) | A (1-25% inhibition) | B (26-50% inhibition) | A (1-25% inhibition) | 26 to 50 | 1 to 25 |  |
| CO[C@H]1CC[C@@H](Nc2nc(-c3nc(C)cn3C)nc3sc(-c4cccc5[nH]ncc45)c(C)c23)C1 [drawing 897] |  |  |  |  |  |  |  |  | B (26-50% inhibition) | B (26-50% inhibition) | B (26-50% inhibition) | B (26-50% inhibition) | 26 to 50 | 26 to 50 |  |
| COc1c(F)cccc1-c1sc2nc(-c3nccn3C)nc(N[C@@H]3CC[C@H](OC)C3)c2c1-c1ccccc1 [drawing 1022] |  |  |  |  |  |  |  |  |  |  |  |  |  |  | inhibition at 20 µM (KRas G12D mutant; [3]): 76 to 100%; inhibition at 20 µM (KRas G12D mutant; [4]): 76 to 100% |
| CO[C@H]1CC[C@@H](Nc2nc(-c3nccn3C)nc3sc(-c4cccc5[nH]ncc45)c(-c4ccccc4)c23)C1 [drawing 1024] |  |  |  |  |  |  |  |  |  |  |  |  |  |  | inhibition at 20 µM (KRas G12D mutant; [3]): 51 to 75%; inhibition at 20 µM (KRas G12D mutant; [4]): 51 to 75% |

From patent US20250296938A1, “Compounds that Interact with the Ras Superfamily for the Treatment of Cancers, Inflammatory Diseases, Rasopathies, and Fibrotic Disease” (SHY Therapeutics, LLC, priority 2018, published 2025)
